Results reported in PMC12396409, “Screening and hit evaluation of a microbial metabolite library against the pathogenic Plasmodium falciparum and Toxoplasma gondii parasites” (International Journal for Parasitology: Drugs and Drug …, 2025).
Where two headings read alike, the source gives them in different places. Where a SMILES comes first, the peptide text is derived from it. [ ]: non-standard residue; d: D form. Aoe = N[C@@H](CCCCCC(=O)[C@@H]1CO1)C(=O)O

Legend:
[1] = tested on: P. falciparum 3D7 parasites; assay: P. falciparum growth inhibition assay, 2-cycle (120 h treatment), delayed-death screen and dose-response; type: cell-based, Plasmodium falciparum; details: for activity at 2 µg/mL: Plasmodium falciparum
[2] = tested on: T. gondii RH strain (RH-Tub-eYFP) tachyzoites; assay: microbe, parasite or virus in culture; type: cell-based, Toxoplasma gondii; details: 72 h; for percent parasite growth at 2 µg/mL: Toxoplasma gondii
[3] = tested on: P. falciparum 3D7 parasites; assay: P. falciparum growth inhibition assay, 1-cycle (72 h treatment), SYBR DNA staining (library screen at 2 μg/mL and dose-response); type: cell-based, Plasmodium falciparum; details: for activity at 2 µg/mL: Plasmodium falciparum
[4] = P. falciparum, 120 h, parasite screen 2 μg/mL, % growth, replicate 1
[5] = P. falciparum, 120 h, parasite screen 2 μg/mL, % growth, replicate 2
[6] = T. gondii, parasite screen 2 μg/mL, % growth, replicate 1
[7] = T. gondii, parasite screen 2 μg/mL, % growth, replicate 2
[8] = P. falciparum, 72 h, parasite screen 2 μg/mL, % growth, replicate 1
[9] = P. falciparum, 72 h, parasite screen 2 μg/mL, % growth, replicate 2
[10] = library screen at 2 μg/mL, 120 h, % growth, replicate 1
[11] = library screen at 2 μg/mL, 120 h, % growth, replicate 2
[12] = library screen at 2 μg/mL, % growth, replicate 1
[13] = library screen at 2 μg/mL, % growth, replicate 2
[14] = library screen at 2 μg/mL, 72 h, % growth, replicate 1
[15] = library screen at 2 μg/mL, 72 h, % growth, replicate 2
[16] = P. falciparum 3D7, 120 h, parasite screen at 2 μg/mL, % growth, replicate 1
[17] = P. falciparum 3D7, 120 h, parasite screen at 2 μg/mL, % growth, replicate 2
[18] = T. gondii, parasite screen at 2 μg/mL, % growth, replicate 1
[19] = T. gondii, parasite screen at 2 μg/mL, % growth, replicate 2
[20] = P. falciparum 3D7, 72 h, parasite screen at 2 μg/mL, % growth, replicate 1
[21] = P. falciparum 3D7, 72 h, parasite screen at 2 μg/mL, % growth, replicate 2
[22] = T. gondii, screen at 2 μg/mL, replicate 1, read-out: Tg_72h_%Growth_Rep1
[23] = T. gondii, screen at 2 μg/mL, replicate 2, read-out: Tg_72h_%Growth_Rep2
[24] = P. falciparum, 120 h, screen at 2 μg/mL, replicate 1
[25] = P. falciparum, 120 h, screen at 2 μg/mL, replicate 2
[26] = T. gondii, screen at 2 μg/mL, replicate 1
[27] = T. gondii, screen at 2 μg/mL, replicate 2
[28] = P. falciparum, 72 h, screen at 2 μg/mL, replicate 1
[29] = P. falciparum, 72 h, screen at 2 μg/mL, replicate 2

Compound: CCC1C=CC2C=C(C)C(OC3CC(C)(O)C(NC(C)=O)C(C)O3)C(C)C=C(C)C3C=CC4C(OC5CC(O)C(OC6CC(OC7CCC(O)C(C)O7)C(OC7CC(O)C(O)C(C)O7)C(C)O6)C(C)O5)C(C)CC(C)C4C3(C)C(O)=C3C(=O)OC2(C1)C3=O (stereo not shown) [Saccharocarcin A]
- Pf_120h_%Growth_Rep1 [1, 4]: 14.27%
- Pf_120h_%Growth_Rep2 [1, 5]: 13.84%
- Tg_72h_%Growth_Rep1 [2, 6]: -0.34%
- Tg_72h_%Growth_Rep2 [2, 7]: 2.07%
- Pf_72h_%Growth_Rep1 [3, 8]: 25.38%
- Pf_72h_%Growth_Rep2 [3, 9]: 12.51%

Compound: C[C@@H]1NC(=O)[C@H](CCCCCC(=O)[C@@H]2CO2)NC(=O)[C@H]2CCCN2C(=O)[C@H](Cc2ccccc2)NC1=O [Alaninechlamydocin, 1-] (cyclo(AF[dP][Aoe]))
- Pf_120h_%Growth_Rep1 [1, 10]: 12.83%
- Pf_120h_%Growth_Rep2 [1, 11]: -6.34%
- Tg_72h_%Growth_Rep1 [2, 12]: 2.60%
- Tg_72h_%Growth_Rep2 [2, 13]: 2.26%
- Pf_72h_%Growth_Rep1 [3, 14]: 2.42%
- Pf_72h_%Growth_Rep2 [3, 15]: 0.98%

Compound: CC(=O)NCCc1c[nH]c2ccc(O)cc12 [Acetylserotonin, N-]
- Pf_120h_%Growth_Rep1 [1, 10]: 81.51%
- Pf_120h_%Growth_Rep2 [1, 11]: 80.80%
- Tg_72h_%Growth_Rep1 [2, 12]: 128.90%
- Tg_72h_%Growth_Rep2 [2, 13]: 97.07%
- Pf_72h_%Growth_Rep1 [3, 14]: 83.62%
- Pf_72h_%Growth_Rep2 [3, 15]: 79.72%

Compound: O=C1Cc2ccccc2N1 [BIA-O1735]
- Pf_120h_%Growth_Rep1 [1, 16]: 73.62%
- Pf_120h_%Growth_Rep2 [1, 17]: 127.66%
- Tg_72h_%Growth_Rep1 [2, 18]: 124.39%
- Tg_72h_%Growth_Rep2 [2, 19]: 90.71%
- Pf_72h_%Growth_Rep1 [3, 20]: 82.92%
- Pf_72h_%Growth_Rep2 [3, 21]: 80.95%

Compound: CC1CC=CC=CC=CC=CC(OC2OC(C)C(O)C(N)C2O)CC2OC(O)(CC(O)CC3OC3C=CC(=O)O1)CC(O)C2C(=O)O (stereo not shown) [BIA-P1210]
- Pf_120h_%Growth_Rep1 [1, 16]: 62.24%
- Pf_120h_%Growth_Rep2 [1, 17]: 79.36%
- Tg_72h_%Growth_Rep1 [2, 18]: 91.98%
- Tg_72h_%Growth_Rep2 [2, 19]: 100.38%
- Pf_72h_%Growth_Rep1 [3, 20]: 82.66%
- Pf_72h_%Growth_Rep2 [3, 21]: 61.24%

Compound: C/C=C/[C@H]1O[C@@](O)([C@@H](C)[C@H](O)[C@H](C)[C@H]2OC(=O)/C(OC)=C/C(C)=C/[C@@H](C)[C@@H](O)[C@@H](CC)[C@@H](O)[C@H](C)C/C(C)=C/C=C/[C@@H]2OC)C[C@@H](O[C@H]2C[C@@H](O)[C@H](OC(N)=O)[C@@H](C)O2)[C@@H]1C [Concanamycin A]
- activity at 2 µg/mL ([1]; 3D7, 120 h, P. falciparum, 120 h, screen at 2 μg/mL, replicate 1, read-out: Pf_120h_%Growth_Rep1): 0.77%
- activity at 2 µg/mL ([1]; 3D7, 120 h, P. falciparum, 120 h, screen at 2 μg/mL, replicate 2, read-out: Pf_120h_%Growth_Rep2): 5.18%
- percent parasite growth at 2 µg/mL [2, 22]: -1.66%
- percent parasite growth at 2 µg/mL [2, 23]: 0.56%
- activity at 2 µg/mL ([3]; 3D7, 72 h, P. falciparum, 72 h, screen at 2 μg/mL, replicate 1, read-out: Pf_72h_%Growth_Rep1): 2.64%
- activity at 2 µg/mL ([3]; 3D7, 72 h, P. falciparum, 72 h, screen at 2 μg/mL, replicate 2, read-out: Pf_72h_%Growth_Rep2): 2.16%

Compound: Enniatin A1
- Pf_120h_%Growth_Rep1 [1, 10]: 8.66%
- Pf_120h_%Growth_Rep2 [1, 11]: 18.71%
- Tg_72h_%Growth_Rep1 [2, 12]: -0.69%
- Tg_72h_%Growth_Rep2 [2, 13]: 13.13%
- Pf_72h_%Growth_Rep1 [3, 14]: 5.31%
- Pf_72h_%Growth_Rep2 [3, 15]: 1.97%

Compound: CC(C)=CCc1cc(C=C2OC(=O)C(c3cc(CC=C(C)C)c(O)cc3O)=C2O)ccc1O [Aspulvinone O]
- Pf_120h_%Growth_Rep1 [1, 10]: 144.60%
- Pf_120h_%Growth_Rep2 [1, 11]: 98.61%
- Tg_72h_%Growth_Rep1 [2, 12]: 90.15%
- Tg_72h_%Growth_Rep2 [2, 13]: 99.19%
- Pf_72h_%Growth_Rep1 [3, 14]: 82.88%
- Pf_72h_%Growth_Rep2 [3, 15]: 86.74%

Compound: CC(=O)O[C@H]1CC[C@]2(C)[C@H]3CC[C@]4(C)Oc5cc(C)oc(=O)c5C[C@H]4[C@]3(C)CC[C@H]2C1(C)C [Chevalone B]
- 2) Growth (%) at 120 h ([1]; P. falciparum, 2 μg/mL, 120 h): 17.52%
- Pf_120h_%Growth_Rep1 [1, 24]: 13.73%
- Pf_120h_%Growth_Rep2 [1, 25]: 21.31%
- 3) Fold change (72 h/120 h) ([1]; P. falciparum, growth at 72 h / growth at 120 h, 2 μg/mL): 1.5
- Tg_72h_%Growth_Rep1 [2, 26]: 78.55%
- Tg_72h_%Growth_Rep2 [2, 27]: 94.84%
- 1) Growth (%) at 72 h ([3]; P. falciparum, 2 μg/mL, 72 h): 25.41%
- Mean ([3]; P. falciparum, 72 h, 2 μg/mL, mean of both replicates, growth (% of control)): 25.41
- Pf_72h_%Growth_Rep1 [3, 28]: 12.18%
- Pf_72h_%Growth_Rep2 [3, 29]: 38.64%

Compound: C[C@H]1C(=O)N2c3ccccc3[C@@]3(O)C[C@@H](n4cnc5ccccc5c4=O)C(=O)N1[C@@H]23 [Chaetominine]
- Pf_120h_%Growth_Rep1 [1, 24]: 101.17%
- Pf_120h_%Growth_Rep2 [1, 25]: 95.94%
- Tg_72h_%Growth_Rep1 [2, 26]: 140.61%
- Tg_72h_%Growth_Rep2 [2, 27]: 97.41%
- Pf_72h_%Growth_Rep1 [3, 28]: 81.47%
- Pf_72h_%Growth_Rep2 [3, 29]: 84.79%

Compound: CSc1cc(=O)n2c3ccccc3c3ccnc1c32 [BIA-M1959]
- Pf_120h_%Growth_Rep1 [1, 16]: 177.81%
- Pf_120h_%Growth_Rep2 [1, 17]: 100.67%
- Tg_72h_%Growth_Rep1 [2, 18]: 88.90%
- Tg_72h_%Growth_Rep2 [2, 19]: 111.29%
- Pf_72h_%Growth_Rep1 [3, 20]: 72.92%
- Pf_72h_%Growth_Rep2 [3, 21]: 92.02%

Compound: O=C(O)c1cccc2nc3ccccc3nc12 [Tubermycin B]
- Pf_120h_%Growth_Rep1 [1, 24]: 88.83%
- Pf_120h_%Growth_Rep2 [1, 25]: 26.83%
- Tg_72h_%Growth_Rep1 [2, 26]: 87.24%
- Tg_72h_%Growth_Rep2 [2, 27]: 96.39%
- Pf_72h_%Growth_Rep1 [3, 28]: 44.49%
- Pf_72h_%Growth_Rep2 [3, 29]: 34.95%

Compound: CC(=O)O[C@H]1C[C@@]2(C)[C@@H](C[C@@H](O)[C@H]3[C@@]4(C)CC[C@@H](O)[C@@H](C)[C@@H]4CC[C@@]32C)/C1=C(\CCC=C(C)C)C(=O)O [Fusidate sodium]
- activity at 2 µg/mL ([1]; 3D7, 120 h, library screen at 2 μg/mL, 120 h, % growth, replicate 1, read-out: Pf_120h_%Growth_Rep1): 91.2%
- activity at 2 µg/mL ([1]; 3D7, 120 h, library screen at 2 μg/mL, 120 h, % growth, replicate 2, read-out: Pf_120h_%Growth_Rep2): 139%
- percent parasite growth at 2 µg/mL ([2]; library screen at 2 μg/mL, % growth, replicate 1, read-out: Tg_72h_%Growth_Rep1): 111%
- percent parasite growth at 2 µg/mL ([2]; library screen at 2 μg/mL, % growth, replicate 2, read-out: Tg_72h_%Growth_Rep2): 91.8%
- activity at 2 µg/mL ([3]; 3D7, 72 h, library screen at 2 μg/mL, 72 h, % growth, replicate 1, read-out: Pf_72h_%Growth_Rep1): 87.5%
- activity at 2 µg/mL ([3]; 3D7, 72 h, library screen at 2 μg/mL, 72 h, % growth, replicate 2, read-out: Pf_72h_%Growth_Rep2): 96%

Compound: C=C1CC[C@H](OC(C)=O)C(C)(C)[C@@H]1CC/C(C)=C/CC/C(C)=C/Cc1c(O)cc(C)oc1=O [Sartorypyrone A]
- Pf_120h_%Growth_Rep1 [1, 4]: 16.39%
- Pf_120h_%Growth_Rep2 [1, 5]: 52.54%
- Tg_72h_%Growth_Rep1 [2, 6]: 82.97%
- Tg_72h_%Growth_Rep2 [2, 7]: 82.11%
- Pf_72h_%Growth_Rep1 [3, 8]: 32.17%
- Pf_72h_%Growth_Rep2 [3, 9]: 81.37%

Compound: CC1(C)C=Cc2cc3ccc(=O)oc3cc2O1 [Xanthyletin]
- activity at 2 µg/mL ([1]; 3D7, P. falciparum, 120 h, screen at 2 μg/mL, replicate 1, read-out: Pf_120h_%Growth_Rep1): 106%
- activity at 2 µg/mL ([1]; 3D7, P. falciparum, 120 h, screen at 2 μg/mL, replicate 2, read-out: Pf_120h_%Growth_Rep2): 81.1%
- percent parasite growth at 2 µg/mL [2, 22]: 146%
- percent parasite growth at 2 µg/mL [2, 23]: 65.7%
- activity at 2 µg/mL ([3]; 3D7, P. falciparum, 72 h, screen at 2 μg/mL, replicate 1, read-out: Pf_72h_%Growth_Rep1): 88.6%
- activity at 2 µg/mL ([3]; 3D7, P. falciparum, 72 h, screen at 2 μg/mL, replicate 2, read-out: Pf_72h_%Growth_Rep2): 22.4%

Compound: CO[C@H]1\C=C/C=C\C=C/C[C@H](OC(=O)[C@@H](C)NC(=O)C2CCCCC2)[C@H](C)[C@@H](O)/C(C)=C\CCc2cc(O)cc(c2O)NC(=O)C1 [Ansatrienin B]
- Pf_120h_%Growth_Rep1 [1, 10]: -0.38%
- Pf_120h_%Growth_Rep2 [1, 11]: 4.42%
- Tg_72h_%Growth_Rep1 [2, 12]: 19.16%
- Tg_72h_%Growth_Rep2 [2, 13]: 11.14%
- Pf_72h_%Growth_Rep1 [3, 14]: 4.68%
- Pf_72h_%Growth_Rep2 [3, 15]: 7.24%
